# Measurements from US8912121B2, “Herbicidal compositions comprising 4-amino-3-chloro-5-fluoro-6-(4-chloro-2-fluoro-3-methoxyphenyl)pyridine-2-carboxylic acid or a derivative thereof and certain PS II inhibitors” (Dow Agrosciences LLC, priority 2012, dated 2014).
# Tested on: ECHCG (Echinochloa crusgalli, barnyardgrass)
# Experiment: In-water applied mixtures, transplanted paddy rice, greenhouse
# Assay type: in vivo, Echinochloa crusgalli (L.) Beauv.
# Conditions: 21 DAA
# Experimental: Weed seeds or nutlets of the desired test plant species were planted in puddled soil (mud) prepared by mixing a shredded, non-sterilized mineral soil (50.5 percent silt, 25.5 percent clay, and 24 percent sand, with a pH of about 7.6 and an organic matter content of about 2.9 percent) and water at a 1:1 volumetric ratio. The prepared mud was dispensed in 365 mL aliquots into 16-ounce (oz.) non-perforated plastic pots with a surface area of 86.59 square centimeters (cm^2) leaving a headspace of 3 centimeters (cm) in each pot Mud was allowed to dry overnight prior to planting or transplanting. Rice seeds were planted in Sun Gro MetroMix® 306 planting mixture, which typically has a pH of 6.0 to 6.8 and an organic matter content of about 30 percent, in plastic plug trays. Seedlings at the second or third leaf stage of growth were transplanted into 840 mL of mud contained in 32-oz. non-perforated plastic pots with a surface area of 86.59 cm^2 4 days prior to herbicide application. The paddy was created by filling the headspace of the pots with 2.5 to 3 cm of water. When required to ensure good germination and healthy plants, a fungicide treatment and/or other chemical or physical treatment was applied. The plants were grown for 4-22 days in a greenhouse with an approximate 14 h photoperiod which was maintained at about 29° C during the day and 26° C. during the night. Nutrients were added as Osmocote® (19:6:12, N:P:K+ minor nutrients) at 2 g per 16-oz. pot and 4 g per 32-oz. pot. Water was added on a regular basis to maintain the paddy flood, and supplemental lighting was provided with overhead metal halide 1000-Watt lamps as necessary. The plants were employed for testing when they reached the first through fourth true leaf stage. […]
# Treatment requirements for each compound or herbicidal component were calculated based upon the rates being tested, the concentration of active ingredient or acid equivalent in the formulation, an application volume of 2 mL per component per pot, and an application area of 86.59 cm^2 per pot.
# For formulated compounds, a measured amount was placed in an individual 100 or 200 mL glass vial and was dissolved in a volume of 1.25% (v/v) Agri-Dex® crop oil concentrate to obtain application solutions. […]
# The treated plants and control plants were placed in a greenhouse as described above and water was added as needed to maintain a paddy flood. After approximately 3 weeks the condition of the test plants as compared with that of the untreated plants was determined visually and scored on a scale of 0 to 100 percent where 0 corresponds to no injury or growth inhibition and 100 corresponds to complete kill. […]
smiles,measurement,setting,value
"COc1c(Cl)ccc(-c2nc(C(=O)O)c(Cl)c(N)c2F)c1F [Compound A Acid, 4-amino-3-chloro-6-(4-chloro-2-fluoro-3-methoxyphenyl)-5-fluoropyridine-2-carboxylic acid]",Visual Weed Control (%) Obs,8.75 g ae/ha,0%
same,Visual Weed Control (%) Obs,17.5 g ae/ha,0%
